Test results as given in patent EP1105515B1, “ALPHA 2,8/2,9 POLYSIALYLTRANSFERASE” (THE SCRIPPS RESEARCH INSTITUTE, priority 1998, dated 2000).

Tested on: neuS gene product of E.coli K92 expressed in BL21(DE3)
Test: Sialyltransferase assay: substrate specificity for acceptor substrates (transfer of 14C-NeuAc from CMP[14C]NeuAc)
Type: biochemical
Conditions: for Total sialic acid transferred / cpm obtained (per 60 ul reaction): 1 (M acceptor, 9 nmol CMP[14C]NeuAc (8000 cpm/nmol) as donor, 37 °C, 1 hr, 20 (g of 40K Sup; for Total sialic acid transferred: per 60 ul reaction; for cpm obtained (per 60 ul reaction): product spot on DEAE-cellulose TLC counted; for suitability as acceptor substrate (in words): cell-free fractions (15 K Sup, 40 K Sup, pellet), CMP[14C]NeuAc as donor
Method: The assay was carried out essentially as described by Vimr et al (Steenbergen, S. M. et al. (1992) J. Bacteriol. 174 : 1099-1108) with the following modifications : after harvesting, the cells were washed three times with 25 mM Tris HCI (pH 8. 0) and then resuspended in 25 mM Tris HCl (pH 8. 0) containing 5 mM MgCl2, 5 mM dithiothreitol (DTT), and 1 (1/mL protease inhibitor cocktail (Sigma). Cells were lysed three times by using a French Press (AMINCO; 1, 500 psi). The cell debris was removed by centrifugation twice at 15, 000 rpm and the supernatant was collected (termed the 15 K Sup). This supernatant was then centrifuged again at 100,000x g (~ 40 K rpm) using a Beckman ultracentrifuge (Model L5-50). Both the supernatant (termed the 40 K Sup) and the pellet were saved. The pellet was resuspended in a buffer containing 25 mM Tris-HCI, 5 mM MgCl2, 5 mM DTT, and 0.1% Triton CF-54. The supernatants and the pellet were stored on ice, and used for assay within 2 h.
Without the addition of acceptor, the endogenous enzyme activity was determined. The exogenous activity was then detected by addition of sialic acid as acceptor and CMP[^14C]NeuAc as donor in a reaction buffer containing 25 mM Tris-HCl (pH 8.0), 5 mM MgCl2, 5 mM DTT, and 0.5% Triton CF-54. Other substrates were also used, including colominic acid. Both the endogenous and exogenous enzyme activity assays measure the transfer of ^14C-labeled NeuAc to the acceptor. Unreacted radiolabeled substrates were seperated by DEAE-cellulose TLC (n-propanol/14M NH4OH/H2O:: 6 : 1: 3) or by Sephadex G-25 column chromatography. Radioactivity remaining at the origin and/or at the top of the TLC plate or the product obtained at the void volume of Sephadex G-25 column, was quantitated by liquid scintillation spectrometry. For analysis using Sephadex G-25 column chromatography, a column (1 cm x 3.5 cm) of Sephadex G-25 (Pharmacia) in water was prepared. The radiolabeled cell-free reaction mixture (60 (1) was loaded and washed with 1.5 ml of water, which was collected and counted. In some experiments, the activity was determined by separating the unused CMP[^14C]NeuAc by Dowex 1X8 (phosphate form) column chromatography (Williams, M. A. et al. (1995) Glycoconj. J. 12: 755 - 761). The initial rates were estimated graphically, and activity was expressed as pmoles of sialic acid transferred per hour.
The reaction mixture (60 (l) contained 1 (M each of the following acceptors and 9 nmol of CMP[^14C]NeuAc (specific activity: 8000 cpm/nmol) as donor substrate. The reactions were carried out at 37 °C for 1 hr using 20 (g of 40K Sup as mentioned in 'Materials and Methods.' The reaction mixture (1 (1) was spotted on a plastic backed DEAE-cellulose TLC plate, and ran in n-propanol:14.5M NH4OH:water :: 6:1:3. After air-drying, the plate was exposed to Kodak's XAR-5 film for overnight at -70° C. The area corresponding to the reaction product was marked, cut and then counted in scintillation fluid.

| Molecule | Total sialic acid transferred | cpm obtained (per 60 ul reaction) | suitability as acceptor substrate (in words) | suitability as acceptor substrate (in words) (listed as neuraminic acid) |
| --- | --- | --- | --- | --- |
| CC(=O)N[C@H]1[C@H]([C@H](O)[C@H](O)COC(C)=O)OC(O)(C(=O)O)C[C@@H]1O (stereo partly drawn) [9-O-acetyl sialic acid] | 110 pmol | 900 cpm | not well accepted |  |
| CC(=O)N[C@H]1[C@H]([C@H](O)[C@H](O)CO)O[C@@](O[C@H](CO)[C@@H](O)[C@@H]2OC(O)(C(=O)O)C[C@H](O)[C@H]2NC(C)=O)(C(=O)O)C[C@@H]1O (stereo partly drawn) [Dimer] | 140 pmol | 1080 cpm | poor acceptors |  |
| CC(=O)N[C@H]1[C@H]([C@H](O)[C@H](O)CO)OC(O)(C(=O)O)C[C@@H]1O (stereo partly drawn) [Monomer, sialic acid] | 470 pmol | 3780 cpm | good acceptors | best substrate |
| CC(=O)N[C@H]1[C@H]([C@H](O)[C@H](O)CO)O[C@@](O[C@H](CO)[C@@H](O)[C@@H]2O[C@@](O[C@H](CO)[C@@H](O)[C@@H]3OC(O)(C(=O)O)C[C@H](O)[C@H]3NC(C)=O)(C(=O)O)C[C@H](O)[C@H]2NC(C)=O)(C(=O)O)C[C@@H]1O (stereo partly drawn) [Trimer] | 140 pmol | 1560 cpm | poor acceptors |  |
| GT1b | 130 pmol | 1140 cpm |  |  |
